From paper PMC6944674, “Comparison of the Hepatotoxic Potential of Two Treatments for Autosomal-Dominant Polycystic Kidney DiseaseUsing Quantitative Systems Toxicology Modeling” (Pharmaceutical Research, 2020)

Assays:
HepG2 cells [1] = assay: ROS formation by DHE fluorescence (high-content imaging); type: cell-based; settings: 24 hour incubation
Procedure: To assess the potential for lixivaptan and its metabolites to induce oxidative stress, assays to measure formation of reactive oxygen species (ROS) were conducted by Cyprotex and overseen by the authors. HepG2 cells were cultured in triplicate in the presence of each test article for 1 or 24 hours; the range of concentrations used for each test article is listed in Table B1. ROS formation was assayed by DHE fluorescence. Two independent studies in triplicate were conducted on HepG2 cells.

HepG2 cells [2] = assay: Intracellular concentration by LC/MS/MS in HepG2 cultures parallel to ROS high-content screening; type: in vitro ADME; settings: High content screening medium; for CIntracellular Fraction: cell lysate
Procedure: (§1) To assess the intracellular concentration of lixivaptan and its metabolites, an identical HepG2 culture was established in parallel and cell lysate concentrations of each test article were measured by LC/MS/MS analysis. Intracellular concentrations of the compounds were calculated by correcting for cell lysate volume (100 µL) and the volume of HepG2 cells in each well, which was calculated by multiplying cell count per well by cellular volume per cell (2.85 pl/cell for HepG2). One independent study in triplicate was conducted to assess intracellular concentrations of the test articles for the ROS (high-content imaging) studies.

[3] = as above; type: in vitro ADME; settings: human, HepG2 cells, High content screening medium
Procedure: as §1

human NTCP = molecular target: T1, human NTCP (Homo sapiens, UniProt Q14973); assay: NTCP inhibition in CHO cells stably expressing human NTCP (taurocholate); type: cell-based
T1 sequence (Q14973 1-349): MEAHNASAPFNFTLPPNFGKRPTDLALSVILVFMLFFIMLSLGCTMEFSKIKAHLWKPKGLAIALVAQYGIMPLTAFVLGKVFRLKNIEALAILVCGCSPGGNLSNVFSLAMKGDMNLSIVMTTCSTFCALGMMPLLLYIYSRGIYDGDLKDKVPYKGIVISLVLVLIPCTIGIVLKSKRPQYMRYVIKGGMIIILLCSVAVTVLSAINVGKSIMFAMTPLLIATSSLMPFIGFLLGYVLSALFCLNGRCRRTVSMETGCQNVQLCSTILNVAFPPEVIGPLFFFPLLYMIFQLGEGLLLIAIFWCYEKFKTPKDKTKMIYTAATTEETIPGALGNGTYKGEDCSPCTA
Procedure: The functional impact of lixivaptan, its three metabolites and tolvaptan on the human ABC (efflux) transporters BSEP and MRP3 and MRP4 was assessed for this project using in vitro vesicular transport inhibition assays. The inhibition of the human SLC (uptake) transporter NTCP was assessed using CHO cells stably expressing human NTCP. The concentration ranges used for the five test articles was determined based on the solubility of each compound in the assay solution. All transporter inhibition assays were conducted in triplicate by Solvo Biotechnology (Szeged, Hungary).
Figure B4. […] See Appendix A for more details.

HepG2 cells [4] = assay: Intracellular concentration by LC/MS/MS in HepG2 cultures parallel to Seahorse assay; type: in vitro ADME; settings: Seahorse medium; for CIntracellular Fraction: cell lysate; for CHepatocyte: corrected for lysate and HepG2 cell volume
Procedure: (§2) The concentration of test compound at the site of action (i.e. hepatocytes) has been identified as highly influential in the selection of parameter values (7). To assess intracellular concentrations of the five test articles, identical HepG2 cultures were established in parallel and cell lysate concentrations of the test articles were measured by LC/MS/MS analysis. Intracellular concentrations of the test articles were calculated by correcting for cell lysate volume (100 µL) and the volume of HepG2 cells in each well, which was calculated by multiplying cell count per well by cellular volume per cell (2.85 pl/cell). One independent study in duplicate was conducted to assess intracellular concentrations of the test articles for Seahorse studies.

[5] = as above; type: in vitro ADME; settings: human, HepG2 cells, Seahorse medium
Procedure: as §2

## Cc1ccc(F)cc1C(=O)Nc1ccc(C(=O)N2Cc3cccn3Cc3ccccc32)c(Cl)c1 [Lixivaptan, lixivaptan]
HepG2 cells [1]
  induction of oxidative stress in HepG2 cells: evidence for induction of oxidative stress
HepG2 cells [2]; dose 0.01 µM
  CExtracellular Fraction: 0.000 ± 0.000 µM
  CHepatocyte: 0.000 ± 0.000 µM
  CIntracellular Fraction: 0.000 ± 0.000 µM
HepG2 cells [2]; dose 0.1 µM
  CExtracellular Fraction: 0.001 ± 0.001 µM
  CHepatocyte: 0.000 ± 0.000 µM
  CIntracellular Fraction: 0.000 ± 0.000 µM
HepG2 cells [2]; dose 0.5 µM
  CExtracellular Fraction: 0.020 ± 0.001 µM
  CHepatocyte: 0.000 ± 0.000 µM
  CIntracellular Fraction: 0.000 ± 0.000 µM
HepG2 cells [2]; dose 1 µM
  CExtracellular Fraction: 0.047 ± 0.001 µM
  CHepatocyte: 0.000 ± 0.000 µM
  CIntracellular Fraction: 0.000 ± 0.000 µM
HepG2 cells [2]; dose 5 µM
  CExtracellular Fraction: 0.345 ± 0.011 µM
  CHepatocyte: 6.02 ± 6.30 µM
  CIntracellular Fraction: 0.0013 ± 0.0016 µM
HepG2 cells [2]; dose 10 µM
  CExtracellular Fraction: 0.736 ± 0.055 µM
  CHepatocyte: 28.44 ± 5.12 µM
  CIntracellular Fraction: 0.0054 ± 0.0032 µM
HepG2 cells [2]; dose 25 µM
  CExtracellular Fraction: 2.751 ± 0.143 µM
  CHepatocyte: 55.57 ± 15.10 µM
  CIntracellular Fraction: 0.0093 ± 0.0055 µM
HepG2 cells [2]; dose 40 µM
  CExtracellular Fraction: 5.773 ± 0.508 µM
  CHepatocyte: 71.75 ± 11.05 µM
  CIntracellular Fraction: 0.0114 ± 0.0058 µM
[3]; dose 5 µM
  Kp at 5 µM: 17.6 ± 18.4
[3]; dose 10 µM
  Kp at 10 µM: 39.7 ± 6.49
[3]; dose 25 µM
  Kp at 25 µM: 19.9 ± 4.54
[3]; dose 40 µM
  Kp at 40 µM: 12.9 ± 2.68
Human NTCP; CHO cells
  inhibition of NTCP-mediated probe substrate accumulation: observed
Human NTCP; read-out: NTCP inhibition constant (IC50)
  IC50: 19 µM
HepG2 cells [4]; dose 0.1 µM
  CIntracellular Fraction: 0 µM
  CHepatocyte: 0 µM
HepG2 cells [4]; dose 0.5 µM
  CIntracellular Fraction: 0.00582 µM
  CHepatocyte: 11.61 µM
HepG2 cells [4]; dose 1 µM
  CIntracellular Fraction: 0.00738 µM
  CHepatocyte: 14.34 µM
HepG2 cells [4]; dose 5 µM
  CIntracellular Fraction: 0.0193 µM
  CHepatocyte: 40.10 µM
HepG2 cells [4]; dose 10 µM
  CIntracellular Fraction: 0.0307 µM
  CHepatocyte: 63.51 µM
HepG2 cells [4]; dose 25 µM
  CIntracellular Fraction: 0.0525 µM
  CHepatocyte: 112.99 µM
HepG2 cells [4]; dose 40 µM
  CIntracellular Fraction: 0.0823 µM
  CHepatocyte: 184.62 µM
[5]; dose 0.5 µM
  Kp at 0.5 µM: 23.2
[5]; dose 1 µM
  Kp at 1 µM: 14.3
[5]; dose 5 µM
  Kp at 5 µM: 8.02
[5]; dose 10 µM
  Kp at 10 µM: 6.35
[5]; dose 25 µM
  Kp at 25 µM: 4.52
[5]; dose 40 µM
  Kp at 40 µM: 4.62
